Assay results as given in ChEMBL document CHEMBL1123071 (J Med Chem, 1985).

Biological target: T1, Dihydrofolate reductase type 1 (Escherichia coli) (UniProt P00382)
T1 sequence (whole entry): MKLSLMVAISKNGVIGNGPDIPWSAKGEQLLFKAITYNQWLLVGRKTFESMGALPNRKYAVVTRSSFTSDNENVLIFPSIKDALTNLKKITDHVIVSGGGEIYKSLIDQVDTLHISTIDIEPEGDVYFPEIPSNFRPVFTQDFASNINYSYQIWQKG
Test: Inhibition of dihydrofolate reductase (DHFR) from Escherichia coli.
Details: not given

Point of comparison: `COc1cccc(N2C(N)=NC(N)=NC2(C)C)c1`, Log 1/C 5.41. Against it:
- Nc1ncc(Cc2ccc([N+](=O)[O-])cc2)c(N)n1 — higher, 6.2
- CC1(C)N=C(N)N=C(N)N1c1ccccc1 — within 0.2 log units, 5.52
- CC1(C)N=C(N)N=C(N)N1c1ccc(Cl)c(Cl)c1 — higher, 6.8
- CC1(C)N=C(N)N=C(N)N1c1cccc(C(F)(F)F)c1 — higher, 5.64
- CC1(C)N=C(N)N=C(N)N1c1cccc(Cc2ccccc2)c1 — higher, 6.55
- CC(=O)Nc1ccc(Cc2cnc(N)nc2N)cc1[N+](=O)[O-] — higher, 6.97
- CC1(C)N=C(N)N=C(N)N1Cc1ccccc1 — lower, 4.47
- CC1(C)N=C(N)N=C(N)N1CCc1ccccc1 — within 0.2 log units, 5.42
- CC1(C)N=C(N)N=C(N)N1c1ccc(C(=O)O)cc1 — lower, 2.72
- CCCN1C(N)=NC(N)=NC1(C)C — within 0.2 log units, 5.33
- Nc1ncc(Cc2ccc(OC(F)(F)F)cc2)c(N)n1 — higher, 6.57
- CC1(C)N=C(N)N=C(N)N1c1cccc(Cl)c1 — higher, 6.22
- COc1ccc(Cc2cnc(N)nc2N)cc1C(F)(F)F — higher, 7.69
- CN1C(N)=NC(N)=NC1(C)C — lower, 4.32
- CC1(C)N=C(N)N=C(N)N1c1cccc([N+](=O)[O-])c1 — within 0.2 log units, 5.51
- CC1(C)N=C(N)N=C(N)N1c1ccc(-c2ccccc2)cc1 — within 0.2 log units, 5.24
- CC1(C)N=C(N)N=C(N)N1c1ccc(Cl)cc1 — higher, 6.4
- CC1(C)N=C(N)N=C(N)N1CCCc1ccccc1 — higher, 7.2
- CC1(C)N=C(N)N=C(N)N1c1cccc(C(=O)O)c1 — lower, 3.89
- CC1(C)N=C(N)N=C(N)N1c1ccc(C#N)cc1 — lower, 4.04
- CS(=O)(=O)Oc1cccc(Cc2cnc(N)nc2N)c1 — higher, 6.92
- CCOC(=O)c1ccc(N2C(N)=NC(N)=NC2(C)C)cc1 — lower, 4.42

System: not given
Test: not given
Details: octanol/water

For `NC(N)=S` [THIOUREA], the logP was -1.06.

System: not listed separately
Test: physchem
Details: octanol/water

Point of comparison: `C=C`, logP 1.13. Against it:
- N=C=N [CARBIMIDE] — lower, -0.5
- OCC(Cl)(Cl)Cl [TRICHLORETHANOL] — higher, 1.42
- O=Nc1ccccc1 [NITROSOBENZENE] — higher, 2.01
- NC(=O)CBr — lower, -0.52
- O=[N+]([O-])CCO — lower, -0.42
- ClC=C(Cl)Cl [TRICHLOROETHYLENE] — higher, 2.29
- COC [METHOXYMETHANE] — lower, 0.1
- Oc1cccc(I)c1 — higher, 3
- CCCl [ETHYL CHLORIDE] — higher, 1.43
- CN(C)N=O [N-NITROSODIMETHYLAMINE] — lower, -0.57
- CS(=O)(=O)c1ccccc1 [METHYLPHENYLSULFONE] — lower, 0.48
- NC(N)=O [UREA] — lower, -1.09
- CC#N [ACETONITRILE] — lower, -0.34
- CCOC(C)=O [ETHYL ACETATE] — lower, 0.7
- CNC(C)=O — lower, -1.05
- C#CC [PROPYNE] — within 0.2 log units, 0.94
- CC(C)N(N=O)C(C)C — higher, 1.63
- O=c1[nH]cc(I)c(=O)[nH]1 — lower, 0.04
- CN(N=O)C(N)=O [N-METHYL-N-NITROSUREA] — lower, -0.16
- CCCCCF — higher, 2.33
- CI [IODOMETHANE] — higher, 1.51
- O=C(O)CS [THIOGLYCOLIC ACID] — lower, 0.09
- CC#CC — higher, 1.46
- CSc1ccccc1 — higher, 2.74
- FC(F)(Cl)C(F)(F)Cl [DICHLOROTETRAFLUOROETHANE] — higher, 2.82
- CF [FLUOROMETHANE] — lower, 0.51
- NC(=O)C(F)(F)F [TRIFLUOROACETAMIDE] — lower, 0.12
- CCN [ETHYLAMINE] — lower, -0.13
- FC(Cl)Cl — higher, 1.55
- C=CC#N [ACRYLONITRILE] — lower, -0.92
- COC(C)=O [ACETIC ACID METHYL ESTER] — lower, 0.18
- C=CC [PROPENE] — higher, 1.77
- CCSCC [DIETHYL SULFIDE] — higher, 1.95
- O=CO [FORMIC ACID] — lower, -0.54
- O=C(O)CBr [BROMOACETIC ACID] — lower, 0.41
- O=Nc1ccc(O)c(C(=O)O)c1 — higher, 2.34
- C=C=C — higher, 1.45
- OCC(F)(F)F [TRIFLUOROETHANOL] — lower, 0.41
- CC(F)F — lower, 0.75
- Cc1cccc([N+](C)(C)C)c1 — lower, -2.31
- Brc1ccccn1 — higher, 1.38
- ClCCl [METHYLENE CHLORIDE] — within 0.2 log units, 1.25
- O=NN(CCF)C(=O)NCCCl — within 0.2 log units, 0.95
- FCF — lower, 0.2
- CC[N+](=O)[O-] [NITROETHANE] — lower, 0.18
- CC(O)CN (configuration not stated) — lower, -0.96
- OCC(Cl)Cl — lower, 0.37
- C#C [ETHYNE] — lower, 0.37
- O=[N+]([O-])c1cccc(I)c1 — higher, 2.94
- CCNC(N)=S — lower, -0.66
- NC(=O)C(Cl)(Cl)Cl — within 0.2 log units, 1.04
- CBr [BROMOMETHANE] — within 0.2 log units, 1.19
- Brc1ccncc1 — higher, 1.54
- FC(F)(F)C(F)(F)F — higher, 2
- CC(Cl)(Cl)Cl [TRICHLOROETHANE] — higher, 2.49
- CC(C)N [ISOPROPYLAMINE] — lower, 0.26
- Sc1ccccc1 [BENZENETHIOL] — higher, 2.52
- C1=CCOC1 — lower, 0.46
- ClC(Cl)=C(Cl)Cl [TETRACHLOROETHYLENE] — higher, 2.6
- CCOCCO [2-ETHOXYETHANOL] — lower, -0.54
- COc1ccccc1 [ANISOLE] — higher, 2.08
- CCOCC [ETHER] — lower, 0.77
- Nc1cccc(Cl)c1 [3-CHLOROANILINE] — higher, 1.88
- C[S+]([O-])c1ccccc1 (configuration not stated) [METHYLPHENYLSULFOXIDE] — lower, 0.55
- C=CCC — higher, 2.4
- CO [METHYL ALCOHOL] — lower, -0.71
- C=COCC — within 0.2 log units, 1.04
- C[N+](C)(C)CCI — lower, -3
- CN [METHYLAMINE] — lower, -0.57
- FC(F)Cl — within 0.2 log units, 1.08
- Clc1ccccc1 [CHLOROBENZENE] — higher, 2.46
- C=C(F)F — within 0.2 log units, 1.24
